Measurements published in PubChem BioAssay (NCI).
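Exposure lasted 48 hours, with cells grown in 96-well plates and compounds tested at five concentrations. GI50 = concentration required for 50% inhibition of growth. TGI: total growth inhibition.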

Key:
Test in all cases: NCI anticancer screen, dose series, 48 h
ACHN renal = test system: ACHN renal
CAKI-1 renal = test system: CAKI-1 renal
CCRF-CEM leukemia = test system: CCRF-CEM leukemia
COLO 205 colon = test system: COLO 205 colon
KM12 colon = test system: KM12 colon
MDA-MB-231 breast = test system: MDA-MB-231 breast
MOLT-4 leukemia = test system: MOLT-4 leukemia
NCI-H460 lung = test system: NCI-H460 lung
PC-3 prostate = test system: PC-3 prostate
RPMI-8226 leukemia = test system: RPMI-8226 leukemia

| Structure (SMILES) | TGI (ACHN renal) [µM] | TGI (CAKI-1 renal) [µM] | TGI (CCRF-CEM leukemia) [µM] | TGI (COLO 205 colon) [µM] | TGI (KM12 colon) [µM] | TGI (MDA-MB-231 breast) [µM] | TGI (MOLT-4 leukemia) [µM] | TGI (NCI-H460 lung) [µM] | TGI (PC-3 prostate) [µM] | TGI (RPMI-8226 leukemia) [µM] | GI50 (ACHN renal) [µM] | GI50 (CAKI-1 renal) [µM] | GI50 (CCRF-CEM leukemia) [µM] | GI50 (COLO 205 colon) [µM] | GI50 (KM12 colon) [µM] | GI50 (MDA-MB-231 breast) [µM] | GI50 (MOLT-4 leukemia) [µM] | GI50 (NCI-H460 lung) [µM] | GI50 (PC-3 prostate) [µM] | GI50 (RPMI-8226 leukemia) [µM] |
| --- | --- | --- | --- | --- | --- | --- | --- | --- | --- | --- | --- | --- | --- | --- | --- | --- | --- | --- | --- | --- |
| O=c1[nH]c2ccccc2c2nc3ccccc3n12 | > 100 | 93.7 | > 100 | > 100 | > 100 | > 100 | > 100 | > 100 | > 100 | > 100 | – | – | – | – | – | – | – | – | – | – |
| N#Cc1c(NCc2ccccc2)nc(NCc2ccccc2)c(C#N)c1-c1ccc(O)cc1 | 57.1 | 44.8 | > 100 | > 100 | 59.7 | 33 | > 100 | 53.6 | > 100 | > 100 | 16.9 | 10.7 | 27.4 | 36.3 | 16.8 | 2.68 | 20.4 | 21.2 | 25.6 | 21.9 |
| O=C1CSC(=S)N1c1ccco1 | > 100 | > 100 | > 100 | > 100 | 52.6 | 92.7 | > 100 | > 100 | > 100 | > 100 | – | – | – | – | – | – | – | – | – | – |
| COc1cc2c(c(OC)c1OC)-c1ccc(O)cc1[C@@H](NC(C)=O)CC2 | > 100 | > 39.8 | 1.62 | 0.0859 | 0.224 | > 100 | – | > 34.9 | > 100 | – | 0.166 | 0.183 | 0.0318 | 0.0319 | 0.0358 | 0.0689 | 0.0578 | 0.0363 | 0.0456 | 0.0312 |
| Cn1c(=O)c(Oc2ccc(F)cc2F)cc2cnc(NC(C)(C)CO)nc21 | > 25 | > 25 | > 25 | > 25 | > 25 | > 25 | > 25 | > 25 | > 25 | > 25 | > 25 | > 25 | > 25 | > 25 | > 25 | > 25 | > 25 | > 25 | > 25 | > 25 |
| CC(=O)Nc1cc2cc(N)ccc2oc1=O | > 100 | > 100 | > 100 | > 100 | > 100 | > 100 | > 100 | > 100 | > 100 | > 100 | – | – | – | – | – | – | – | – | – | – |
